Test results as given in patent publication US8354106B2, “Antibodies against HMGB1 and fragments thereof” (The Feinstein Institute for Medical Research, priority 2005, dated 2013).
Where no end group is shown, it is not given here. The star is where a group is joined. Biotin = O=C1N[C@H]2[C@H](CS[C@H]2CCCCC(=O)*)N1

Test system: human immature monocyte-derived dendritic cells (DCs)
Assay: Cytokine/chemokine secretion by human immature monocyte-derived dendritic cells (ELISA)
Type: cell-based
Design: key to TNFα secretion / IL-18 secretion / IL-8 secretion / IL-10 secretion / IL-6 secretion / IL-12 secretion: “+” indicates an increase; “−” indicates no change relative to untreated cells (medium)
Conditions: for IL-6 secretion / IL-8 secretion / IL-10 secretion / IL-12 secretion / IL-18 secretion / TNFα secretion: HUMAN DC, ELISA 48 h after exposure, relative to untreated cells; for secretion of IL-6 by DCs: FIGS. 1A, 1B
Description: Peripheral blood mononuclear cells (PBMCs) were isolated from the blood of normal volunteers (Long Island Blood Services, Melville, N.Y.) over a Ficoll-Hypaque (Amersham Biosciences, Uppsala, Sweden) density gradient. CD14^+ monocytes were isolated from PBMCs by positive selection using anti-CD14 beads (Miltenyi Biotech., Auburn, Calif.), following the manufacturer's instructions. To generate DCs, CD14^+ cells were cultured in RPMI 1640 medium supplemented with 2 mM L-glutamine (GIBCO-BRL Life Technologies, Grand Island, N.Y.), 50 μM 2-mercaptoethanol (Sigma, St. Louis, Mo.), 10 mM HEPES (GIBCO-BRL), penicillin (100 U/ml), streptomycin (100 μg/ml) (GIBCO-BRL), and 5% human AB serum (Gemini Bio-Products, Woodland, Calif.). Cultures were maintained for 7 days in 6-well trays (3×10^6 cells/well) supplemented with 1000 U GM-CSF per ml (Immunex, Seattle, Wash.) and 200 U IL-4 per ml (R&D Systems, Minneapolis, Minn.) at days 0, 2, 4 and 6.
Recombinant HMGB1-B box domain (HMGB1-Bx) was expressed in Escherichia coli and purified as described by Li, et al. (Mol. Med. 9:37-45; J. Immunol. Methods 289:211-223 (2004)). Purified HMGB1-Bx contained trace amounts of LPS (19 pg LPS/μg HMGB1-Bx) as measured by the chromogenic Limulus amebocyte lysate assay (BioWhittacker Inc, Walkersville, Md.). All experiments using HMGB1-Bx, as well as the HMGB1 peptides, were performed in the presence of polymyxin B (200 U/ml) to neutralize the amount of contaminating LPS in the HMGB1-Bx and peptide preparations. We have previously shown that the DC stimulatory capacity of HMGB1-Bx requires an intact tertiary structure and is not due to contaminating amounts of LPS, as trypsinization abolished HMGB1-Bx activity (Messmer, et al., J. Immunol. 173: 307-313 (2004); the entire teachings of which are incorporated herein by reference).
Secreted cytokine/chemokine levels were measured by ELISA (Pierce Boston Technology Center, SearchLight™ Proteome Arrays Multiplex Sample Testing Services, Woburn, Mass.) 48 h after addition of the various peptides. Polymyxin B (200 U/ml) was added to all cultures, except those containing LPS, before the stimuli were added. Immature monocyte-derived human dendritic cells (DCs) and immature bone-marrow derived murine dendritic cells (BM-DCs) were cultured either in the presence of HMGB1 peptides (200 μg/ml), whose sequences map to different regions of the HMGB1 protein (see Table 1), the entire HMGB1 B-box domain (HMGB1-Bx) (50 μg/ml), or LPS (100 ng/ml). Untreated cells (medium) were tested as a control. Each peptide was named according to the corresponding position of its first amino acid within the full-length HMGB1 sequence. All peptides were N-terminally biotinylated except “Hp-106 (non bio)”.

[1] = peptides 200 μg/ml, HMGB1-Bx 50 μg/ml
[2] = human DCs, peptides 200 μg/ml, 48 h

Row | Sequence | IL-6 secretion [1] | IL-8 secretion [1] | IL-10 secretion [1] | IL-12 secretion [1] | IL-18 secretion [1] | TNFα secretion [1] | cytokine secretion by human DCs (human DCs) | secretion of IL-6 by DCs [2] | secretion of IL-12 (p70) (human DCs, FIG. 1C, peptides 200 μg/ml, 48 h) | secretion of TNF-α (human DCs, FIG. 1D, peptides 200 μg/ml, 48 h) | secretion of IL-18 (human DCs, FIG. 1E, peptides 200 μg/ml, HMGB1-Bx 50 μg/ml, 48 h) | secretion of IL-8 (human DCs, FIG. 1F, peptides 200 μg/ml, HMGB1-Bx 50 μg/ml, 48 h)
1 | YAFFVQTCREEHIKKHPD [Hp-16] | − | − | − | − | − | − | did not stimulate cytokine secretion and not | did not induce IL-6 secretion |  |  |  | 
2 | CSEYRPKIKGEHPGLSIG [Hp-106] (Biotin-CSEYRPKIKGEHPGLSIG; listed as Homo sapiens) | + | − | − | + | + | + | induced cytokine secretion by human DCs | induced secretion | induced secretion | induced secretion | induced secretion | did not induce secretion
